{"source": "patent US20240409585A1", "about": "“MACROCYCLIC IMMUNOMODULATORS” (priority 2021, published 2024)", "note": "Bridge positions count the residues as written; N and C are the ends. Square brackets hold non-standard residues; d marks the D form. Peptide text beside a SMILES is read from it. ξ: configuration not given here. Bip = N[C@@H](Cc1ccc(-c2ccccc2)cc1)C(=O)O; Phe(3-CN) = N#Cc1cccc(C[C@H](N)C(=O)O)c1; Phe(3-Cl) = N[C@@H](Cc1cccc(Cl)c1)C(=O)O; Phe(3-OMe) = COc1cccc(C[C@H](N)C(=O)O)c1; Phe(3-Me) = Cc1cccc(C[C@H](N)C(=O)O)c1; Bta = N[C@@H](Cc1csc2ccccc12)C(=O)O; Cit = NC(=O)NCCC[C@H](N)C(=O)O; Ile(3ξ) = CCC(C)[C@H](N)C(=O)O; Thr(3ξ) = CC(O)[C@H](N)C(=O)O; NMeA = CN[C@@H](C)C(=O)O; Orn = NCCC[C@H](N)C(=O)O; Aze = O=C(O)[C@@H]1CCN1; Dab = NCC[C@H](N)C(=O)O", "data": [{"molecular_target": "T1, PE-labeled human PD-L1-Ig binding to Jurkat cell line over-expressing human PD-1 (Jurkat-PD-1) (Homo sapiens, UniProt Q15116)", "T1 construct": "expressed in transfected cells; host or cells: Jurkat", "T1 sequence (Q15116 25-288)": "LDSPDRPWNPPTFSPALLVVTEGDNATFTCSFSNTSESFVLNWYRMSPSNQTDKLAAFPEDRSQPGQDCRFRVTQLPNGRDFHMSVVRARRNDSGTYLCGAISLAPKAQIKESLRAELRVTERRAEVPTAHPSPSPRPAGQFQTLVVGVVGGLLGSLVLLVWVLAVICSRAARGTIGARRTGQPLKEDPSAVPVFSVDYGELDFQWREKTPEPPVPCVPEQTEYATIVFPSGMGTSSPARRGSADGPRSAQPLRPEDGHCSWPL", "assay": "Jurkat-PD-1 Cell Binding High-Content Screening Assay (CBA): Method 1", "details": "Jurkat-hPD-1 cells, PE-labeled PD-L1-Ig 20 nM final; read-out: Jurkat HPDL1 PD1 IC50 (uM) (Method 1)", "units": {"IC50": "µM"}, "values": [{"smiles": "CC(C)C[C@@H]1NC(=O)[C@H](CCN)NC(=O)[C@@H](CC(C)C)NC(=O)[C@@H]2CCN2C(=O)[C@H](C(C)C)NC(=O)[C@H](Cc2ccc(-c3ccccc3)cc2)NC(=O)[C@H](C(C)C)NC(=O)[C@H](Cc2c[nH]c3ccccc23)NC(=O)[C@H](CC(=O)O)NC(=O)[C@H](Cc2ccc(O)cc2)NC(=O)[C@H](CC(N)=O)NC(=O)CSC[C@@H](C(=O)N[C@@H](C)C(N)=O)NC(=O)[C@H]([C@@H](C)O)NC(=O)[C@H](C(C)C)NC1=O", "note": "[Compound 1297] ({CH2CO}-NYDWV[Bip]V[Aze][dL][Dab]LVTCA-NH2; thioether N-14)", "IC50": 0.32}, {"smiles": "CC(C)C[C@@H]1NC(=O)[C@H](CCN)NC(=O)[C@@H](CC(C)C)NC(=O)[C@H](C)N(C)C(=O)[C@H](CCCNC(N)=O)NC(=O)[C@H](Cc2ccc(-c3ccccc3)cc2)NC(=O)[C@H](C(C)C)NC(=O)[C@H](Cc2cccc(Cl)c2)NC(=O)[C@H](CC(=O)O)NC(=O)[C@H](Cc2ccc(O)cc2)NC(=O)[C@H](CC(N)=O)NC(=O)CSC[C@@H](C(=O)N[C@@H](C)C(N)=O)NC(=O)[C@H]([C@@H](C)O)NC(=O)[C@H](C(C)C)NC1=O", "note": "[Compound 1190] ({CH2CO}-NYD[Phe(3-Cl)]V[Bip][Cit][NMeA][dL][Dab]LVTCA-NH2; thioether N-14)", "IC50": 0.02}, {"smiles": "CCC(C)[C@@H]1NC(=O)[C@H](Cc2ccc(-c3ccccc3)cc2)NC(=O)[C@H](C(C)C)NC(=O)[C@H](Cc2c[nH]c3ccccc23)NC(=O)[C@H](CC(=O)O)NC(=O)[C@H](Cc2ccc(O)cc2)NC(=O)[C@H](CC(N)=O)NC(=O)CSC[C@@H](C(=O)N[C@@H](C)C(N)=O)NC(=O)[C@H](C(C)O)NC(=O)[C@H](C(C)C)NC(=O)[C@H](CC(C)C)NC(=O)[C@H](CCN)NC(=O)[C@@H](CC(C)C)NC(=O)[C@H](C)N(C)C1=O", "note": "(stereo partly drawn) [Compound 2040] ({CH2CO}-NYDWV[Bip][Ile(3ξ)][NMeA][dL][Dab]LV[Thr(3ξ)]CA-NH2; thioether N-14)", "IC50": 0.05}, {"smiles": "Cc1cccc(C[C@@H]2NC(=O)[C@H](CC(=O)O)NC(=O)[C@H](Cc3ccc(O)cc3)NC(=O)[C@H](Cc3ccccc3)NC(=O)CSC[C@@H](C(=O)N[C@@H](C)C(N)=O)NC(=O)[C@H]([C@@H](C)O)NC(=O)[C@H](C(C)C)NC(=O)[C@H](CC(C)C)NC(=O)[C@H](CCCNC(=N)N)NC(=O)[C@@H](CC(C)C)NC(=O)[C@H](C)N(C)C(=O)[C@H](CCCNC(=N)N)NC(=O)[C@H](Cc3ccc(-c4ccccc4)cc3)NC(=O)[C@H](C(C)C)NC2=O)c1", "note": "[Compound 1125] ({CH2CO}-FYD[Phe(3-Me)]V[Bip]R[NMeA][dL]RLVTCA-NH2; thioether N-14)", "IC50": 0.05}, {"smiles": "CC(C)C[C@@H]1NC(=O)[C@H](CCN)NC(=O)[C@@H](CC(C)C)NC(=O)[C@H](C)N(C)C(=O)[C@H](CCCNC(N)=O)NC(=O)[C@H](Cc2ccc(-c3ccccc3)cc2)NC(=O)[C@H](C(C)C)NC(=O)[C@H](Cc2c[nH]c3ccccc23)NC(=O)[C@H](CC(=O)O)NC(=O)[C@H](Cc2cccc(C#N)c2)NC(=O)[C@H](CC(N)=O)NC(=O)CSC[C@@H](C(=O)N[C@@H](C)C(N)=O)NC(=O)[C@H]([C@@H](C)O)NC(=O)[C@H](C(C)C)NC1=O", "note": "[Compound 1314] ({CH2CO}-N[Phe(3-CN)]DWV[Bip][Cit][NMeA][dL][Dab]LVTCA-NH2; thioether N-14)", "IC50": 0.04}, {"smiles": "CC(C)C[C@@H]1NC(=O)[C@H](CCCN)NC(=O)[C@@H](CC(C)C)NC(=O)[C@H](C)N(C)C(=O)[C@H](CCCNC(=N)N)NC(=O)[C@H](Cc2ccc(-c3ccccc3)cc2)NC(=O)[C@H](C(C)C)NC(=O)[C@H](Cc2c[nH]c3ccccc23)NC(=O)[C@H](CC(=O)O)NC(=O)[C@H](Cc2ccc(O)cc2)NC(=O)[C@H](CC(N)=O)NC(=O)CSC[C@@H](C(=O)N[C@@H](CO)C(N)=O)NC(=O)[C@H]([C@@H](C)O)NC(=O)[C@H](C(C)C)NC1=O", "note": "[Compound 1177] ({CH2CO}-NYDWV[Bip]R[NMeA][dL][Orn]LVTCS-NH2; thioether N-14)", "IC50": 0.12}, {"smiles": "CC(C)C[C@@H]1NC(=O)[C@H](CCCNC(=N)N)NC(=O)[C@@H](CC(C)C)NC(=O)[C@H](C)N(C)C(=O)[C@H](CCCNC(=N)N)NC(=O)[C@H](Cc2ccc(-c3ccccc3)cc2)NC(=O)[C@H](C(C)C)NC(=O)[C@H](Cc2c[nH]c3ccccc23)NC(=O)[C@H](CC(=O)O)NC(=O)[C@H](Cc2ccc(O)cc2)NC(=O)[C@H](Cc2ccccc2)NC(=O)CSC[C@@H](C(=O)N[C@@H](C)C(N)=O)NC(=O)[C@H]([C@@H](C)O)NC(=O)[C@H](C(C)C)NC1=O", "note": "[Compound 1048] ({CH2CO}-FYDWV[Bip]R[NMeA][dL]RLVTCA-NH2; thioether N-14)", "IC50": 0.06}, {"smiles": "COc1cccc(C[C@@H]2NC(=O)[C@H](Cc3ccccc3)NC(=O)CSC[C@@H](C(=O)NCC(N)=O)NC(=O)[C@H](CO)NC(=O)[C@H](C(C)C)NC(=O)[C@H](CC(C)C)NC(=O)[C@H](CC(N)=O)NC(=O)[C@@H](CC(C)C)NC(=O)[C@H](C)N(C)C(=O)[C@H](C(C)C)NC(=O)[C@H](Cc3ccc(-c4ccccc4)cc3)NC(=O)[C@H](CC(C)C)NC(=O)[C@H](Cc3c[nH]c4ccccc34)NC(=O)[C@H](CC(=O)O)NC2=O)c1", "note": "[Compound 1521] ({CH2CO}-F[Phe(3-OMe)]DWL[Bip]V[NMeA][dL]NLVSCG-NH2; thioether N-14)", "IC50": 0.07}, {"smiles": "Cc1cccc(C[C@@H]2NC(=O)[C@H](CC(=O)O)NC(=O)[C@H](Cc3ccc(O)cc3)NC(=O)[C@H](CC(N)=O)NC(=O)CSC[C@@H](C(N)=O)NC(=O)[C@H]([C@@H](C)O)NC(=O)[C@H](C(C)C)NC(=O)[C@H](CC(C)C)NC(=O)[C@H](CCN)NC(=O)[C@@H](CC(C)C)NC(=O)[C@H](C)N(C)C(=O)[C@H](CCCNC(N)=O)NC(=O)[C@H](Cc3ccc(-c4ccccc4)cc3)NC(=O)[C@H](C(C)C)NC2=O)c1", "note": "[Compound 1641] ({CH2CO}-NYD[Phe(3-Me)]V[Bip][Cit][NMeA][dL][Dab]LVTC-NH2; thioether N-14)", "IC50": 0.14}, {"smiles": "CC(C)C[C@@H]1NC(=O)[C@H](CCCNC(=N)N)NC(=O)[C@H](Cc2csc3ccccc23)NC(=O)[C@H](C)N(C)C(=O)[C@H](CCCNC(=N)N)NC(=O)[C@H](Cc2ccc(-c3ccccc3)cc2)NC(=O)[C@H](C(C)C)NC(=O)[C@H](Cc2c[nH]c3ccccc23)NC(=O)[C@H](CC(=O)O)NC(=O)[C@H](Cc2ccc(O)cc2)NC(=O)[C@H](Cc2cnc[nH]2)NC(=O)CSC[C@@H](C(=O)NCC(N)=O)NC(=O)[C@H](CO)NC(=O)[C@H](C(C)C)NC1=O", "note": "[Compound 1025] ({CH2CO}-HYDWV[Bip]R[NMeA][Bta]RLVSCG-NH2; thioether N-14)", "IC50": 0.12}, {"smiles": "CSCC[C@H]1NC(=O)[C@H](C)N(C)C(=O)[C@H](CCCNC(=N)N)NC(=O)[C@H](Cc2ccc(-c3ccccc3)cc2)NC(=O)[C@H](C(C)C)NC(=O)[C@H](Cc2c[nH]c3ccccc23)NC(=O)[C@H](CC(=O)O)NC(=O)[C@H](Cc2ccc(O)cc2)NC(=O)[C@H](Cc2ccccc2)NC(=O)CSC[C@@H](C(=O)N[C@@H](C)C(N)=O)NC(=O)[C@H]([C@@H](C)O)NC(=O)[C@H](C(C)C)NC(=O)[C@H](CC(C)C)NC(=O)[C@H](CCCNC(=N)N)NC1=O", "note": "[Compound 1062] ({CH2CO}-FYDWV[Bip]R[NMeA][dM]RLVTCA-NH2; thioether N-14)", "IC50": 0.15}]}]}
